Reference: ChEMBL document CHEMBL1781940, “Cytotoxic and PPARs transcriptional activities of sterols from the Vietnamese soft coral Lobophytum laevigatum” (Bioorg Med Chem Lett, 2011)
pIC50: −log10 of the molar value. The source made the active and inactive calls. No cut-off for these calls is given here.

Key:
HepG2 [1] = test: Transactivation of PPAR transcriptional activity expressed in human HepG2 cells co-expressing PPRE-Luc after 24 hrs by luciferase reporter gene assay relative to negative control; format: cell-based
HepG2 [2] = test: Transactivation of PPAR transcriptional activity expressed in human HepG2 cells co-expressing PPRE-Luc at 1 uM after 24 hrs by luciferase reporter gene assay relative to negative control; format: cell-based
HepG2 [3] = test: Transactivation of PPAR transcriptional activity expressed in human HepG2 cells co-expressing PPRE-Luc at 10 uM after 24 hrs by luciferase reporter gene assay relative to negative control; format: cell-based
A549 [4] = test: Cytotoxicity against human A549 cells after 24 hrs by MTT assay; format: functional, cell-based; conditions: for pIC50: A549, 24 h
HCT-116 [5] = test: Cytotoxicity against human HCT116 cells after 24 hrs by MTT assay; format: functional, cell-based; conditions: for pIC50: HCT-116, 24 h
HL-60 [6] = test: Cytotoxicity against human HL60 cells after 24 hrs by MTT assay; format: functional, cell-based; conditions: for pIC50: HL-60, 24 h
A549 [7] = test: Induction of apoptosis in human A549 cells assessed as chromatin condensation apoptotic bodies at 4.5 uM after 24 hrs using Hoechst 33342 staining and fluorescent microscopy; format: functional, cell-based
HCT-116 [8] = test: Induction of apoptosis in human HCT116 cells assessed as chromatin condensation apoptotic bodies at 3.2 uM after 24 hrs using Hoechst 33342 staining and fluorescent microscopy; format: functional, cell-based
HL-60 [9] = test: Induction of apoptosis in human HL60 cells assessed as chromatin condensation apoptotic bodies at 5.6 uM after 24 hrs using Hoechst 33342 staining and fluorescent microscopy; format: functional, cell-based

| SMILES | Activity (HepG2 [1]) | fold change (FC) (HepG2 [2]) | fold change (FC) (HepG2 [3]) | Activity (A549 [4]) | Activity (HCT-116 [5]) | Activity (HL-60 [6]) | pIC50 (HL-60 [6]) | pIC50 (A549 [4]) | pIC50 (HCT-116 [5]) | Activity (A549 [7]) | Activity (HCT-116 [8]) | Activity (HL-60 [9]) |
| --- | --- | --- | --- | --- | --- | --- | --- | --- | --- | --- | --- | --- |
| CC(C)[C@@H](C)CC[C@@H](C)[C@H]1CC[C@H]2[C@@H]3[C@H](O)C=C4C[C@@H](O)CC[C@]4(C)[C@H]3CC[C@]12C | Dose-dependent effect | 1.2 | 2.5 | inactive | inactive | inactive | – | – | – | – | – | – |
| O=C1c2c(O)ccc(O)c2C(=O)c2c(NCCNCCO)ccc(NCCNCCO)c21 [MITOXANTRONE] | – | – | – | – | – | – | 5.09 | – | – | – | – | – |
| CC(C)CCC[C@@H](C)[C@H]1CC[C@H]2[C@@H]3CC=C4C[C@@H](O)CC[C@]4(C)[C@H]3CC[C@]12C | – | – | – | inactive | inactive | inactive | – | – | – | – | – | – |
| C[C@H]1C[C@]2(O[C@H]3C[C@H]4[C@@H]5CC=C6C[C@@H](O)CC[C@]6(C)[C@H]5CC[C@]4(C)[C@H]3[C@@]2(C)O)OC1(C)C | Dose-dependent effect | 1.4 | 2 | – | – | – | < 4.70 | < 4.70 | 5.16 | – | – | – |
| CC(=O)[C@H]1CC[C@H]2[C@@H]3CC=C4C[C@@H](O)CC[C@]4(C)[C@H]3CC[C@]12C | Dose-dependent effect | 1.6 | 2.1 | inactive | inactive | inactive | – | – | – | – | – | – |
| CC(C)[C@H](C)[C@H](C)[C@@H](O)[C@]1(C)O[C@]12CC[C@H]1[C@@H]3CC[C@H]4[C@H](C)[C@@H](O)CC[C@]4(C)[C@H]3CC[C@@]12C [LOBOPHYTOSTEROL] | – | – | – | – | – | – | 5.25 | 5.35 | 5.49 | Active | Active | Active |
| C[C@H](CC[C@H](C)C(C)(C)O)[C@H]1CC[C@H]2[C@@H]3CC=C4C[C@@H](O)CC[C@]4(C)[C@H]3CC[C@]12C | – | – | – | – | – | – | < 4.70 | < 4.70 | 4.74 | – | – | – |
